Assay results from patent publication US20230277508A1, “USE OF COMPOUND AS CYP2E1 INHIBITOR” (SHANGHAI LING XI BIOTECHNOLOGY DEVELOPMENT CO., LTD., priority 2020, published 2023).

Experiments:
CYP2A6 = biological target: T1, CYP2A6 (Homo sapiens, UniProt P11509); experiment: Determination of selectivity of a CYP2E1 inhibitor: CYP2A6; format: biochemical; conditions: mixed human liver microsome, 2.5 μM coumarin probe; read-out: IC50 for 2A6 inhibition
T1 construct: With a mixed liver microsome of a healthy individual as a research object; from tissue; host or cells: mixed (pooled) human liver microsomes of healthy individuals
Description: With a mixed liver microsome of a healthy individual as a research object, probe drugs CYP1A2, CYP2A6, CYP2B6, CYP2C8, CYP2C9, CYP2C19, CYP2D6, CYP2E1, and CYP3A4 were selected to determine an in vitro inhibitory effect of an inhibitor to be tested on the metabolism of the probe drugs CYP1A2, CYP2A6, CYP2B6, CYP2C8, CYP2C9, CYP2C19, CYP2D6, CYP2E1, and CYP3A4 for the mixed liver microsome of the healthy human, and the selectivity of the inhibitor to be tested for a CYP2E1 inhibitory effect was evaluated.
The CYP1A2 probe is 6.25 μM to 800 μM phenacetin or 27.5 μM to 12,520 μM caffeine; • the CYP2A6 probe is 0.156 μM to 20 μM coumarin or 12.5 μM to 2,000 μM nicotine; • the CYP2B6 probe is 7.8 μM to 500 μM bupropion or 0.25 mM to 30 mM cyclophosphamide; • the CYP2C8 probe is 2.5 μM to 80 μM paclitaxel or 0.125 μM to 128 μM amodiaquine; • the CYP2C9 probe is 31.25 μM to 2,000 μM tolbutamide or 0.1 μM to 200 μM diclofenac; • the CYP2C19 probe is 3.9 μM to 500 μM omeprazole or 1.95 μM to 1,000 μM mephenytoin; • the CYP2D6 probe is 0.625 μM to 96 μM dextromethorphan or 0.0195 μM to 80 μM propafenone; and • the CYP3A4 probe is 0.39 μM to 50 μM midazolam or 1.98 μM to 1,000 μM testosterone.
An incubation system in a total volume of 100 μL was adopted, including a substrate, an inhibitor of different concentrations, a liver microsomal protein, and PBS. […]

[1] = tested on: liver cancer cell line H22 in situ transplanted tumor; experiment: Mouse liver cancer model, in situ implantation of H22 cells into liver; format: in vivo, BALB/c mouse; conditions: for liver H22 tumor incidence: 24 days, model group 100%
Method: Experimental method: A male BALB/c mouse liver transplanted tumor model was constructed through in situ implantation of a liver cancer cell line H22 into the liver, with a cell concentration of 1.5*10^5. An SMI0 intervention group was divided into a low-dose group, a medium-dose group, and a high-dose group, which were intragastrically administered with the compound SMI0 respectively at 3.3 mg/kg, 10 mg/kg, and 30 mg/kg every day from two days before modeling to the end of the 24-day modeling (model group, n=19 mice; SMI0 compound low-dose group, n=19 mice; SMI0 compound medium-dose group, n=18 mice; and SMI0 compound high-dose group, n=29 mice). At the end of the experiment, blood was collected from the orbit, a body weight was measured, and then the mice each were sacrificed. The weight and appearance of a liver (color and texture of the liver) were recorded. Some liver specimens were subjected to HE staining, and then the liver lesion and tumorigenesis of mice in each group were observed.
Experimental method: The levels of oxidative stress indexes MDA and T-AOC in the mouse paracancerous liver tissue were determined by a kit method; the expression of the chemokine CXCL-12 in the mouse paracancerous liver tissue was detected by RT-PCR; the expression of proinflammatory cytokines (TNF-α, IL-6, and IL-1β) and inflammation-associated signaling pathway proteins (ARRB1, Src, ITGAV, p-STAT3/STAT3, p-ERK/ERK, and p-P38MAPK/P38MAPK) in the mouse paracancerous liver tissue was detected by a WB method; and the expression of apoptosis-associated proteins and signaling pathways casPase3, cleaved casPase3, p-ERK/ERK, and p-p38MAPK/p38MAPK in the tumor tissue was detected by a WB method.

M2 microglial cells = experiment: Inflammatory factor and lipid metabolism gene levels in co-cultivated glial cells (qPCR); format: cell-based, mouse; conditions: SMI0 50 μmol/L vs M2 microglial cell co-cultivation group
Method: Experimental method: 10 1-2 d newborn C57BL/6 WT mice and 6 CYP2E1^−/− mice were taken, primary microglial cells and astrocytes were collected and inoculated into 6-well plates, and 24 h later, culture supernatants were taken and co-cultivated with glioma cells. Experimental groups: control group; M2 model group; high-concentration, medium-concentration, and low-concentration SMI0 (50 μmol/L, 12.5 μmol/L, and 3.1 μmol/L) groups; and CYP2E1 gene-knockout group. 24 h later, supernatants were discarded; and […] and IL-13 each were added at 20 ng/mL to induce the transformation of microglial cells into the M2 type in the M2 model group and the high-concentration, medium-concentration, and low-concentration SMI0 groups, and different concentrations of SMI0 (50 μmol/L, 12.5 μmol/L, and 3.1 μmol/L) were also added in the intervention groups. The proliferation of glioma cells was determined by a CCK8 method, and an apoptosis proportion was determined by an Annexin V-FITC-PI apoptosis staining kit.
Experimental method: Astrocytes in the co-cultivation group were collected, RNA was extracted and reverse-transcribed into cDNA, and the changes of inflammatory factor and cholesterol metabolism-associated genes were detected by qPCR.

[2] = WB, SMI0 30 mg/kg vs model group

T1 sequence (P11509 whole entry): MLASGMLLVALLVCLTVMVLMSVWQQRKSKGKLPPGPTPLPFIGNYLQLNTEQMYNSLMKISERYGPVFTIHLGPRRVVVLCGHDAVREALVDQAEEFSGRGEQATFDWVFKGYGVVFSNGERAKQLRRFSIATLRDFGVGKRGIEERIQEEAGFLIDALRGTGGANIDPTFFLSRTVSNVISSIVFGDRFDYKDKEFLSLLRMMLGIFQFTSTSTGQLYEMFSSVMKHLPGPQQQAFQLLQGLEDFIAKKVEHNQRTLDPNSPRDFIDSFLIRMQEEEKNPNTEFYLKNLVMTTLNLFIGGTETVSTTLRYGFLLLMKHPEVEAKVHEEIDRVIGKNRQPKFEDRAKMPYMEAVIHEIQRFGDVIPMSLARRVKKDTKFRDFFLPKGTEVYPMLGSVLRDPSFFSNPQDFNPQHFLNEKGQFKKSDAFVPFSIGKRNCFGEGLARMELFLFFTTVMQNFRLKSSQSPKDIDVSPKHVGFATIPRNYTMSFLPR

CC(=O)c1scnc1C [SMI0] was tested, and the IC50 (CYP2A6) was 76.2 µM, the “liver H22 tumor incidence” value ([1]; SMI0 high-dose 30 mg/kg ig daily) was 68.4% and the “total oxidation resistance index T-AOC in paratumoral liver tissue” value ([1]; SMI0 intervention group vs model group, P<0.01) was “significantly increased”. The “expression of other proteins (MDA, CXCL-12, TNF-α, IL-6, IL-1β, ARRB1, Src, ITGAV, p-STAT3/STAT3, p-ERK/ERK, p-p38MAPK/p38MAPK) in paratumoral liver tissue” value ([1]; SMI0 intervention group vs model group, P<0.05 or P<0.01) was “significantly reduced”, the “liver H22 tumor incidence” value ([1]; SMI0 low-dose 3.3 mg/kg ig daily) was 78.9% and the “liver H22 tumor incidence” value ([1]; SMI0 medium-dose 10 mg/kg ig daily) was 72.2%. For the same compound, the “expression of p-ERK/ERK in the tumor tissue” value [1, 2] was “significantly down-regulated”, the “expression of p-p38MAPK/p38MAPK in the tumor tissue” value [1, 2] was “significantly down-regulated” and the “expression of cleaved caspase3/caspase3 in the tumor tissue” value ([1]; WB, SMI0 30 mg/kg vs model group, P<0.01) was “significantly up-regulated”. For the same compound, the “tumor proliferation inhibition rate” value ([1]; as high as, SMI0 intervention group (3.3, 10, 30 mg/kg), cumulative liver tumor weight) was 71.8%, the “level of IL-4” value (M2 microglial cells) was “significantly reduced” and the “level of IL-10” value (M2 microglial cells) was “significantly reduced”. For the same compound, the “level of IL-13” value (M2 microglial cells) was “significantly reduced” and the “level of the lipid metabolism-associated gene PPAR-α” value (M2 microglial cells) was “significantly increased”.
